Data reported in US20180264191A1, “SYSTEMS AND METHODS FOR NEURAL DRUG DELIVERY AND MODULATION OF BRAIN ACTIVITY” (priority 2017, published 2018).

Columns and labels:
hippocampal (CA1) unit = assay: Acute tetrode recording with local micro-injection through MiNDS in anesthetized rats; type: in vivo; conditions: anesthetized rat
Protocol: Acute electrophysiological recordings and micro-injections were performed in anesthetized rats to test the system with a tetrode W electrode. […] The channel impedance values of the tetrode electrode (T-1, T-2, T-3, T-4) were 430, 370, 440, and 370 kΩ. […] The mean of the action potentials recorded from this unit was stable during the experiment (i.e. before first saline infusion, before first and second muscimol infusions), confirming that the unit was present during the trial, as shown in FIGS. 18A-C. […] Peak 1 and Peak 2 are the maximal value of waveforms measured by T-1, T-2, respectively. The projections of the peak values calculated from each recorded action potential are shown in FIG. 18C, reflecting the cluster-cutting used to isolate signals coming from different neurons. […]
The dura was removed and the device was lowered into the brain to a depth of 2.5 mm and a location with unit activity was identified. The local neural signals were recorded with Open Ephys GUI software. Prior to drug infusion, the local signals were recorded for 30 mins to ensure stable spikes were located. After the baseline recording, 150 nl of saline were infused into the site at a flow rate of 100 nl/min and the activity was recorded for another 30 mins. […] Recording was recorded for another 30 mins post muscimol infusion. […]

substantia nigra (SN) = assay: Behavioral study: rotations after unilateral infusion into the substantia nigra through S-MiNDS with iPrecio pumps; type: in vivo; conditions: rat
Protocol: The capability of interfacing the system with deep brain structures to remotely control behavior was tested. In experiments in rats, the S-MiNDS was implanted in the SN and was connected to two implanted iPrecio pumps, containing either saline or muscimol. Unilateral delivery of muscimol to the SN is known to evoke preferential ipsilateral rotation, reflecting a hemiparkinsonian state. […] These studies were performed multiple times on each of multiple animals. This illustrates the ability of system to repeatedly and reproducibly deliver small volumes of drug to effect a reversible behavioral change.
A similar protocol as described above was used to implant the MiNDS with the iPrecio pumps. Rats were anesthetized, and their heads were shaved and disinfected. A longer incision was made to accommodate the insertion of the pumps. As aforementioned, the MiNDS burr hole was made 5 mm posterior to the bregma and 2.5 mm lateral to the midline, and a support screw burr hole was made 3 mm posterior and 2 mm lateral to the bregma, on the opposite side. The screw was implanted, such that 1 mm protruded beneath the skull. A subcutaneous cavity for the pump was made by blunt dissection, and the pump was inserted through the incision. The MiNDS probe was implanted and cemented to the skull using C&B Metabond adhesive (Parkell Inc., Edgewood N.Y.) and Orthojet dental cement (Lange Dental, Wheeling, Ill. USA), and the incision was closed using 5-0 monofilament non-resorbable suture and 3M tissue glue. Animals were closely observed during the recovery period and given analgesics and wet food. By 1 week post-surgery, in all cases animals were ambulatory and otherwise healthy. Animals implanted with pumps were used for the behavioral studies described below. […]
A rat was implanted with the MiNDS and two pumps pre-loaded and flushed with either saline or muscimol, as described above. The animal was placed within the dish and recorded over the course of 5 hrs. […]
Videos were imported into Ethovision, where they were analyzed for ipsilateral and contralateral rotations over time. […]

[1] = system: local neuronal activity in the neocortex; assay: Unit firing and local field potential recording with serial infusions through L-MiNDS in awake head-fixed monkey; type: in vivo, rhesus macaque (Macaca mulatta); conditions: for rate of detected spike activity (local unit firing): muscimol 2 mg/ml in aCSF, 500 nl at 100 nl/min for 5 mins
Protocol: The functionality of the system (specifically, the L-MiNDS) was confirmed in a large, awake behaving animal model, the rhesus macaque (macacca mulatta) monkey. The L-MiNDS was used to modulate and monitor local neuronal activity in the neocortex of a head-fixed monkey through serial infusions of aCSF and muscimol, which respectively preserve and inhibit baseline unit firing activity, as depicted in FIG. 21A. The 1st vertical line on left indicates the start of aCSF infusion (at 20 mins) and the 2nd vertical line denotes the muscimol infusion (at 63.7 mins). The impedance measurement of the W-electrode was 1.5 MΩ in brain and at pre-implantation in saline was 2 MΩ. Modulation of neuronal firing activity was monitored by recording signals at the MiNDS electrode adjoining the infusion ports. […] Then, aCSF was infused for 5 mins 20 s at an infusion rate of 100 nl/min. This control infusion had minimal effect on the local firing rate and unit waveform during and after the infusion. Muscimol was then infused at the same location for 5 mins at infusion rate of 100 nl/min. […] Vertical and horizontal bars denote 10 μV and 2 ms, respectively.
A second experiment was conducted targeting deeper layers of the neocortical region (i.e., dorsal bank of the cingulate cortex) to determine if recovery of the reduced neural activity through an additional infusion of aCSF could be induced at this adjoining site. This larger infusion of aCSF was indeed effective in reversing the inhibitory effect of muscimol, as shown by the observation of an increasing frequency of spikes with waveforms closely resembling those found during the pre-muscimol period, as depicted in FIGS. 23A-23C. In particular, the 1st vertical line on left in FIG. 23A denotes the start of aCSF infusion (at 20 mins), the second vertical line represents the start of muscimol infusion (at 43 mins), and the third vertical line denotes the start of aCSF infusion (at 92 mins). In FIG. 23Cm vertical and horizontal bars denote 10 μV and 2 ms, respectively. […] Compared to prior work, this is the first system that allows serial infusion of multiple distinct solutions to be delivered in a focal, independent manner in a NHP. The system's integrated electrode can also be used to record local field potentials (LFPs), as shown in FIGS. 24A and 24B, which may be important for clinical applications that may require chronic recording from a fixed brain location. For example, pathological beta-band LFP in Parkinson's disease and/or epileptic discharges in epilepsy could be recorded from the chronically integrated electrode to track and treat dysfunction in future applications. In FIG. 24A, two curves for each period represent 95% confidence intervals. Each pair of curves correspond to signals averaged over 10 mins periods as labeled in the legend at the top right of each plot. […] Alpha (5-11 Hz) and beta (11-30 Hz) band power fluctuate without correlation to the infusions. The prominent power at 60 Hz is due to coupling of power mains noise. […]
Solutions used for infusion through the MiNDS were aCSF (artificial cerebrospinal fluid, Tocris Biosciences) and muscimol (2 mg/ml in aCSF, Sigma-Aldrich). The MiNDS and guide cannula were sonicated in a detergent solution (Alconox, Inc.), rinsed with water, and then sonicated and soaked in 70% ethanol followed by water until they were ready for implantation. […]

[2] = 1.67 μl of muscimol (0.2 mg/ml) into SN, 180° turns

## NCc1cc(=O)[nH]o1 [muscimol]
Hippocampal (CA1) unit; local infusion via iPrecio pump, first muscimol infusion at 60 mins
  firing rate of hippocampal (CA1) unit after first muscimol injection: a slow decrease of the firing rate occurred
Hippocampal (CA1) unit; second muscimol infusion at 90 mins
  rate of detected spike activity of hippocampal (CA1) unit after second muscimol injection: abolished the rate of detected spike activity
Substantia nigra (SN); [2]
  counter-clockwise rotations: remained the same
  increase in the number of clockwise rotations: 52 fold
Substantia nigra (SN); remotely controlled infusion of 1.67 μl of muscimol (0.2 mg/ml) into SN
  parkinsonian behavior (preferential ipsilateral rotation): reliably induced
[1]; after muscimol infusion
  LFP power for alpha frequencies: persists
  LFP power for broadband, beta, and gamma frequency ranges: decreases significantly
[1]; after muscimol infusion, 10 mins intervals
  LFP broadband power from 30-100 Hz: decreases immediately following muscimol infusion
[1]
  rate of detected spike activity (local unit firing): immediately suspended activity
[1]; listed as Muscimol
  rate of detected spike activity (local unit firing): immediately decreased the rate of detected spike activity
